One series concerns HCC1954 cells. Nature of the series: Breast cancer growth inhibitory activity (Cell-titer Glo, 72 h). Type of series: cell-based. The following applies: Homo sapiens. As to the method:
(§1) Breast cancer cells in a culture solution (100 μL volume/well, 2,500 SK-Br3 cells/well, 1,000 HCC-1954 cells/well) were seeded into a tissue culture-treated 96-well plate and cultured in a cell incubator for 24 hours. […] Cell-titer Glo™ reagent (50 μL of a 5-fold diluted solution, Promega) was added to each well, and luminescence signals were measured using an Envision™ plate reader (PerkinElmer, USA). Titration curve fitting and IC50 values were generated using Prism 7.0 s/w (GraphPad, San Diego, USA).

A further series concerns SK-Br3 cells. Described as above. In kind it is cell-based. The following applies: Homo sapiens, SK-BR-3. As to the method: as §1
A further series deals with cyclinK. Nature of the series: Western blot, cyclinK degradation. In kind it is cell-based. Conditions: SK-Br3 cell line, 0.2 and 1 μM, 2 hours.
Series [1] deals with Pol II CTD (Ser2) phosphorylation. Nature of the series: Western blot, Pol II CTD Ser2 phosphorylation. In kind it is cell-based. The following applies: SK-Br3 cell line, 0.2 and 1 μM, 2 hours.
In a further series the target is CDK12/CyclinK (Homo sapiens (Human), UniProt Q9NYV4). Nature of the series: CDK12/cyclinK enzyme activity. Type of series: biochemical. Conditions: in vitro.
For a further series, the target named is CYP1A2 (Homo sapiens (Human), UniProt P05177). Nature of the series: in vitro. In kind it is in vitro ADME. As to the method: (§2) 5 derivatives were evaluated for in vitro metabolic stability in liver microsomes from three different species (human, dog, mouse) and for inhibitory activity against 5 representative cytochrome P450 enzymes (CYPs)(Table 3). In terms of liver microsomal stability, the 2′-pyridyl group is more suitable than the α-methyl-4′-pyridyl group as the terminal aromatic group at position 6, and the aminopyrimidyl group is better than the aminopyridyl group as a substituent at position 2.

Series [2] can be described thus: Liver microsomal metabolic stability. In kind it is in vitro ADME. The following applies: for Liver microsomal metabolic stability (% remaining amount) Dog: dog liver microsomes; for Liver microsomal metabolic stability (% remaining amount) Human: human liver microsomes; for Liver microsomal metabolic stability (% remaining amount) Mouse: mouse liver microsomes. The method, then: as §2

The next series addresses CYP2C19 (Homo sapiens (Human), UniProt P33261). Nature of the series: CYP inhibitory activity. Conditions: read-out: CYP % activity at 10 μM concentration 2C19. In kind it is in vitro ADME. The method, then: as §2
The target in the next series is CYP3A4 (Homo sapiens (Human), UniProt P08684). Nature of the series: CYP inhibitory activity. In kind it is in vitro ADME. Conditions: read-out: CYP % activity at 10 μM concentration 3A4. As to the method:
as §2

The next series has as its target CYP2C9 (Homo sapiens (Human), UniProt P11712). Nature of the series: CYP inhibitory activity. Type of series: in vitro ADME. The following applies: read-out: CYP % activity at 10 μM concentration 2C9. As to the method:
as §2

The next series addresses CYP2D6 (Homo sapiens (Human), UniProt P10635). Nature of the series: CYP inhibitory activity. Type of series: in vitro ADME. Conditions: read-out: CYP % activity at 10 μM concentration 2D6. The method, then:
as §2

[3] abbreviates: 72 hours, read-out: HCC1954 (GI50/μM).
[4] abbreviates: 72 hours, read-out: SK-Br3 (GI50/μM).

Read-outs that look alike come from different tables or passages of the source.

Sequence of CDK12/CyclinK (Q9NYV4 whole entry): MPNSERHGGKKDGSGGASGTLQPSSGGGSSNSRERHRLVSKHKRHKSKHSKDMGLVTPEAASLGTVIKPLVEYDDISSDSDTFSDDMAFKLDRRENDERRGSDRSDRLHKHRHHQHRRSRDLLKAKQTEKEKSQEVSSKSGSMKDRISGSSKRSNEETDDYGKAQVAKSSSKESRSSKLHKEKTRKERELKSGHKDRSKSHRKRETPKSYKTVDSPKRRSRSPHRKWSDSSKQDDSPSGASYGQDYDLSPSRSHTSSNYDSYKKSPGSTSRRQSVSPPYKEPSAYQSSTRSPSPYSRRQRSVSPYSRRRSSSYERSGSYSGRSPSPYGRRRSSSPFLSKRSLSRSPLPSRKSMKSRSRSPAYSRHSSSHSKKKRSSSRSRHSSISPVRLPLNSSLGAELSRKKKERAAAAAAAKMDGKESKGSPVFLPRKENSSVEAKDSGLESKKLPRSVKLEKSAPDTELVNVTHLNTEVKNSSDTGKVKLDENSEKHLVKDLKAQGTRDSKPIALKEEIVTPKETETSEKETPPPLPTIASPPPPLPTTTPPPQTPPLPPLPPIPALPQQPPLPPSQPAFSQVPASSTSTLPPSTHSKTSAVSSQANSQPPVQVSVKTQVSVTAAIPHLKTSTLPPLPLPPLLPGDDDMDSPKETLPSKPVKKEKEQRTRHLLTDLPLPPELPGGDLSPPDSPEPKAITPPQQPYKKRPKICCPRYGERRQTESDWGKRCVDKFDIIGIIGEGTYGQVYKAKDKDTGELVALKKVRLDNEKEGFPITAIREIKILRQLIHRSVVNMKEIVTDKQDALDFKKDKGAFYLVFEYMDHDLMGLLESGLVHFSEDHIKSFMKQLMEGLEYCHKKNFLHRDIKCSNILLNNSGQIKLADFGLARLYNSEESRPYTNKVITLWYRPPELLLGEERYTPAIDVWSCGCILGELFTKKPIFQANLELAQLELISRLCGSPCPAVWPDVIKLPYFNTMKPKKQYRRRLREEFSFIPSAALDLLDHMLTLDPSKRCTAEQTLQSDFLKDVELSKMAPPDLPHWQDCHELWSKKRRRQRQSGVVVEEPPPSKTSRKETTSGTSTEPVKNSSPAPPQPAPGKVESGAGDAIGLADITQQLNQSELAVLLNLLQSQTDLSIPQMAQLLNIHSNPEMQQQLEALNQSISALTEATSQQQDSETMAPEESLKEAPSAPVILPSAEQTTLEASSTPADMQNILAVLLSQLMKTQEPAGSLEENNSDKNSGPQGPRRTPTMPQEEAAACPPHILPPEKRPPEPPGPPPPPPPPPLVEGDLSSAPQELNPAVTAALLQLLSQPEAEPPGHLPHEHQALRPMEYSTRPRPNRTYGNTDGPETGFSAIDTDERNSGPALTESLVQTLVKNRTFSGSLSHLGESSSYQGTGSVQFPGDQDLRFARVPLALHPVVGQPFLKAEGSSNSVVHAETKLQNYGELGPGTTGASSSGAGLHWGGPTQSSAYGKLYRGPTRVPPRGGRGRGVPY
Sequence of CDK12/CyclinK (O75909 whole entry partner): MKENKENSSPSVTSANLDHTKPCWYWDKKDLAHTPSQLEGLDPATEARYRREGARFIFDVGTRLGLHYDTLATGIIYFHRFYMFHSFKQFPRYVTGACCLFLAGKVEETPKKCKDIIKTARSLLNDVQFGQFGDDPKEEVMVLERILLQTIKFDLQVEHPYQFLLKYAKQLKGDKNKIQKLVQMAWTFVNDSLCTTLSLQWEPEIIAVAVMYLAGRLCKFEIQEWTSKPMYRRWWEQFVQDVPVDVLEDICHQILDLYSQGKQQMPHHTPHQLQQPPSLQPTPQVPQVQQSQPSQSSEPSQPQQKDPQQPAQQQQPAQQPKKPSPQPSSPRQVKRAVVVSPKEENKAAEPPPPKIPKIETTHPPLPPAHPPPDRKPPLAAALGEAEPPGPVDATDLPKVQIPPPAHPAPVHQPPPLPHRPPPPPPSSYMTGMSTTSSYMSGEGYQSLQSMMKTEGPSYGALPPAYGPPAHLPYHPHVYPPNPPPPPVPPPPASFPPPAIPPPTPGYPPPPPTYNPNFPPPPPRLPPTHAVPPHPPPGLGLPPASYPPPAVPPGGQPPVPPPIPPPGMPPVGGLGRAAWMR
Sequence of CYP1A2 (P05177 whole entry): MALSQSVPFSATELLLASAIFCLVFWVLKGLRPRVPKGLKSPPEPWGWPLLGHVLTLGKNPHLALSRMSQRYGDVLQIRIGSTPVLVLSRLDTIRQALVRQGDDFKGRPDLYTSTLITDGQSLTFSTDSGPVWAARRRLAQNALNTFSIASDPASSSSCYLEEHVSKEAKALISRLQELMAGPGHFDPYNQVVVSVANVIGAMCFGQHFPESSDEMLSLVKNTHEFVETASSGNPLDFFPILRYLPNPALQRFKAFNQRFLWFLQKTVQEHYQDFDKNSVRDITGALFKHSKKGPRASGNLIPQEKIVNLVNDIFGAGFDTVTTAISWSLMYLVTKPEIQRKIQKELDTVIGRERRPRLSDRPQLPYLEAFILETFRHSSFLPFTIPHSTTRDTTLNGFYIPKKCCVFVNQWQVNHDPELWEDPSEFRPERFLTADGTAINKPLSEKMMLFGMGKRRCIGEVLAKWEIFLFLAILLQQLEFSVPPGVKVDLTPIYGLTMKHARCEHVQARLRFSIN
Sequence of CYP2C9 (P11712 whole entry): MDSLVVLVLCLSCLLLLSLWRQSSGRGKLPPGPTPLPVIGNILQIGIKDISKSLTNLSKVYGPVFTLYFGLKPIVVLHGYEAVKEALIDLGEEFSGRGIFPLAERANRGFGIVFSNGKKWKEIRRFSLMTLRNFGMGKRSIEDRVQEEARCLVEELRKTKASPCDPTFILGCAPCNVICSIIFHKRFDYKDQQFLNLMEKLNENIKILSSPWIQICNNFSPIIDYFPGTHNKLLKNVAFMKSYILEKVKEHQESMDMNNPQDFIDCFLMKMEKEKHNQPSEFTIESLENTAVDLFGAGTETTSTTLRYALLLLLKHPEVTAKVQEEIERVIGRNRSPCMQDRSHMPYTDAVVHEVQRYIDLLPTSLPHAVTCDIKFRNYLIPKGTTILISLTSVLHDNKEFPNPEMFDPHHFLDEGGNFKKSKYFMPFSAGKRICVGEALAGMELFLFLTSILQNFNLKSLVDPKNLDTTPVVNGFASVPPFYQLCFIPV
Sequence of CYP2D6 (P10635 whole entry): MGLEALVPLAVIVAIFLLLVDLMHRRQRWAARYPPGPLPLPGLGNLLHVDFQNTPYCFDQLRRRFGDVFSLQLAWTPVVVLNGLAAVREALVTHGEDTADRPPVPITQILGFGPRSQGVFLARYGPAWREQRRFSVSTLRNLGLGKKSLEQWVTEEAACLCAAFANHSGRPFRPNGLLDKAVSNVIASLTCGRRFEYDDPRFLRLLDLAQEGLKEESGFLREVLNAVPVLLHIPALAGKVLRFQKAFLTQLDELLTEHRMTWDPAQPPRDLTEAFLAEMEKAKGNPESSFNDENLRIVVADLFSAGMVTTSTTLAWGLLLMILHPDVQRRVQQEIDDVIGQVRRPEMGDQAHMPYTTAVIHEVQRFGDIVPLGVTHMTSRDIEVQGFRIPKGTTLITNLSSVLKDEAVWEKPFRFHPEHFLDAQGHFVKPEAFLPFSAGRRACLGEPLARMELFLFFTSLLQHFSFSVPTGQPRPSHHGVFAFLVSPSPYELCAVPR
Sequence of CYP3A4 (P08684 whole entry): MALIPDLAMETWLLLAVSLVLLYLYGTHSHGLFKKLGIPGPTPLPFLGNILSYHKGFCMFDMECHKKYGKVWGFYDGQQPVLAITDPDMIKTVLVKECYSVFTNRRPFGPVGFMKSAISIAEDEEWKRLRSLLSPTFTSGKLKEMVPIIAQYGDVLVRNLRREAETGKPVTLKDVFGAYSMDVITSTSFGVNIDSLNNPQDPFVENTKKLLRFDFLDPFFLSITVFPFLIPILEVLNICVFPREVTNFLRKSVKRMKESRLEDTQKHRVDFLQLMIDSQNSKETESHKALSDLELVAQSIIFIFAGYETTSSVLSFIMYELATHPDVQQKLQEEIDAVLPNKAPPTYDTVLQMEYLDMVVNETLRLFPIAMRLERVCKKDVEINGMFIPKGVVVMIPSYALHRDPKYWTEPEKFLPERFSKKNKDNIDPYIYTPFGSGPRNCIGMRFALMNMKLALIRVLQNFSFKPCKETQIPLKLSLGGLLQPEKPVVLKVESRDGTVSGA
Sequence of CYP2C19 (P33261 whole entry): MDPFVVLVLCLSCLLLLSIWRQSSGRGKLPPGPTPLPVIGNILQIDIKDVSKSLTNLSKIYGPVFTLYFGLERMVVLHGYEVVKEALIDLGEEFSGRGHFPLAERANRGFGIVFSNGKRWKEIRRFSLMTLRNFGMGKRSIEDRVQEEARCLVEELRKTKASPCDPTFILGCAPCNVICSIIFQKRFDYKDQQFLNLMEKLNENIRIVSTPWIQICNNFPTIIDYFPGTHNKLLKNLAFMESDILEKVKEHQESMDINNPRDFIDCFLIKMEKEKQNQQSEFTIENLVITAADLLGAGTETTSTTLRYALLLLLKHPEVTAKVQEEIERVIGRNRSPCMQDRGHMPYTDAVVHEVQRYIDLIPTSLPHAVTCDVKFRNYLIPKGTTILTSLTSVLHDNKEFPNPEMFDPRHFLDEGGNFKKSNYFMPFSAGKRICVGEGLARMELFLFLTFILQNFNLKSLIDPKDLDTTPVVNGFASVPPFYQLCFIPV

Take `CC(C)n1cnc2c(NCc3ccc(-c4ccncc4)cn3)nc(-c3cccnc3)nc21` [Example 4, N-([3,4′-bipyridin]-6-ylmethyl)-9-isopropyl-2-(pyridin-3-yl)-9H-purin-6-amine]: the results for the GI50 with HCC1954 cells (setting [3]) and with SK-Br3 cells (setting [4]) were 0.888 µM and 0.74 µM, respectively. In addition, in the series on cyclinK, the cyclinK degradation entry is recorded as “induced the degradation of cyclinK”. In addition, the “Pol II CTD (Ser2) phosphorylation” value in series [1] was “inhibited Pol II CTD (Ser2) phosphorylation in a dose-dependent manner”. The same molecule returned an IC50 on CDK12/CyclinK of 0.627 µM.

With `Cc1cc(-c2ccc(CNc3nc(-c4cccnc4)nc4c3ncn4C(C)C)nc2)ccn1` [Example 5, 9-isopropyl-N-((2′-methyl-[3,4′-bipyridin]-6-yl)methyl)-2-(pyridin-3-yl)-9H-purin-6-amine], the cyclinK degradation result with cyclinK is reported as “induced the degradation of cyclinK”. Moreover, the “Pol II CTD (Ser2) phosphorylation” value in series [1] is reported as “inhibited Pol II CTD (Ser2) phosphorylation in a dose-dependent manner”. For the same molecule, at CDK12/CyclinK, half-maximal inhibition (IC50) required 0.481 µM.

With `CC(C)n1cnc2c(NCc3ccc(-c4cccnc4)cn3)nc(-c3cccnc3)nc21` [Example 2, N-([3,3′-bipyridin]-6-ylmethyl)-9-isopropyl-2-(pyridin-3-yl)-9H-purin-6-amine], the GI50 was found to be 0.659 µM with HCC1954 cells (setting [3]) and 0.866 µM in the series on SK-Br3 cells (setting [4]). Moreover, the cyclinK degradation entry in the series on cyclinK is listed as “induced the degradation of cyclinK”. In series [1], the “Pol II CTD (Ser2) phosphorylation” value was “inhibited Pol II CTD (Ser2) phosphorylation in a dose-dependent manner”. For the same molecule, the IC50 on CDK12/CyclinK was 0.582 µM.

For the molecule `CC(C)n1cnc2c(NCc3ccc(-c4ccccn4)cn3)nc(-c3cccnc3)nc21` [Example 1, N-([2,3′-bipyridin]-6′-ylmethyl)-9-isopropyl-2-(pyridin-3-yl)-9H-purin-6-amine], the GI50 in the series on HCC1954 cells (setting [3]) came to 0.105 µM. Moreover, the cyclinK degradation entry in the series with cyclinK was “induced the degradation of cyclinK”. For the same molecule, the “Pol II CTD (Ser2) phosphorylation” value in series [1] is listed as “inhibited Pol II CTD (Ser2) phosphorylation in a dose-dependent manner”. At CDK12/CyclinK, this molecule showed an IC50 of 0.433 µM.

Take `CCn1cnc2c(NCc3ccc(-c4ccnc(C)c4)nc3)nc(-c3ccc(N)nc3)nc21` [Example 49, 2-(6-aminopyridin-3-yl)-9-ethyl-N-((2′-methyl-[2,4′-bipyridin]-5-yl)methyl)-9H-purin-6-amine]: the activity at 10 µM on CYP1A2 came out at 59.3%; on CYP2C19, 76.8%; on CYP3A4, 38.9%; on CYP2C9 it was 73%; at CYP2D6, 89.6%. In addition, in the series with SK-Br3 cells (setting [4]), the GI50 was found to be 0.133 µM. Also, in [2], the “Liver microsomal metabolic stability (% remaining amount) Dog” value turned out to be 45.1%. The “Liver microsomal metabolic stability (% remaining amount) Human” value in series [2] is given as 32.2%. The “Liver microsomal metabolic stability (% remaining amount) Mouse” value in series [2] is given as 35.3%. On CDK12/CyclinK, the IC50 came to 0.012 µM.

As to `CC(C)n1cnc2c(NCc3ccc(-c4cccnc4)nc3)nc(-c3ccc(N)nc3)nc21` [Example 18, N-([2,3′-bipyridin]-5-ylmethyl)-2-(6-aminopyridin-3-yl)-9-isopropyl-9H-purin-6-amine], the GI50 turned out to be 0.279 µM with HCC1954 cells (setting [3]) and 0.375 µM in the series on SK-Br3 cells (setting [4]). The molecule further yielded an IC50 on CDK12/CyclinK of 0.065 µM.

`CC(C)n1cnc2c(NCc3ccc(-c4cccnc4)nc3)nc(-c3ccc4[nH]ccc4c3)nc21` [Example 11, N-([2,3′-bipyridin]-5-ylmethyl)-2-(1H-indol-5-yl)-9-isopropyl-9H-purin-6-amine]: the GI50 in the series with HCC1954 cells (setting [3]) is 1.36 µM; in the series with SK-Br3 cells (setting [4]), 1.5 µM. At CDK12/CyclinK, this molecule registered an IC50 of 0.155 µM.

Turning to `CC(C)n1cnc2c(NCc3ccc(-c4cccnc4)nc3)nc(-c3cccc(N)c3)nc21` [Example 26, N-([2,3′-bipyridin]-5-ylmethyl)-2-(3-aminophenyl)-9-isopropyl-9H-purin-6-amine], the GI50 with HCC1954 cells (setting [3]) turned out to be 0.34 µM; in the series with SK-Br3 cells (setting [4]), 0.615 µM. The IC50 at CDK12/CyclinK was determined as 0.17 µM.

Take `c1cncc(-c2ccc(CNc3nc(-c4cccnc4)nc4c3ncn4C3CCCC3)cn2)c1` [Example 47, N-([2,3′-bipyridin]-5-ylmethyl)-9-cyclopentyl-2-(pyridin-3-yl)-9H-purin-6-amine]: the figures for the GI50 in the series with HCC1954 cells (setting [3]) and with SK-Br3 cells (setting [4]) were 2.14 µM and 2.6 µM, respectively. For the same molecule, the midpoint of inhibition on CDK12/CyclinK, the IC50, lay at 0.293 µM.

Regarding `CCn1cnc2c(NCc3ccc(-c4ccnc(C)c4)nc3)nc(-c3cnc(N)nc3)nc21` [Example 50, 2-(2-aminopyrimidin-5-yl)-9-ethyl-N-((2′-methyl-[2,4′-bipyridin]-5-yl)methyl)-9H-purin-6-amine], the activity at 10 µM was 74.9% on CYP1A2; 75.4% on CYP2C19; 72.4% on CYP3A4; 82.9% at CYP2C9; 85.7% on CYP2D6. Besides, in series [2], the “Liver microsomal metabolic stability (% remaining amount) Dog” value was 53.6%. For the same molecule, the “Liver microsomal metabolic stability (% remaining amount) Human” value in [2] is 40.6%. For the same molecule, the “Liver microsomal metabolic stability (% remaining amount) Mouse” value in series [2] stood at 45.0%. 0.019 µM corresponded to half-maximal inhibition against CDK12/CyclinK (IC50).

On to `Cc1ccc(-c2nc(NCc3ccc(-c4cccnc4)nc3)c3ncn(C(C)C)c3n2)cn1` [Example 17, N-([2,3′-bipyridin]-5-ylmethyl)-9-isopropyl-2-(6-methylpyridin-3-yl)-9H-purin-6-amine], for which the GI50 in the series with HCC1954 cells (setting [3]) amounted to 0.937 µM; with SK-Br3 cells (setting [4]) it was 1.25 µM. In addition, the IC50 against CDK12/CyclinK is 0.09 µM.

As to `CN(C)C/C=C/C(=O)Nc1ccc(C(=O)N2CCC[C@@H](Nc3ncc(Cl)c(-c4c[nH]c5ccccc45)n3)C2)cc1` [THZ531, reference compound], the results for the GI50 with HCC1954 cells (setting [3]), in the series with HCC1954 cells (read-out: HCC1954 GI50) and in the series with SK-Br3 cells (read-out: SK-Br3 GI50) were 0.214 µM, 0.214 µM and 0.03 µM, respectively. Moreover, half-maximal inhibition against CDK12/CyclinK (IC50) required 0.05 µM.

For the molecule `CC(C)n1cnc2c(NCc3ccc(-c4cccnc4)nc3)nc(-c3ccc(NCCO)nc3)nc21` [Example 35, 2-((5-(6-(([2,3′-bipyridin]-5-ylmethyl)amino)-9-isopropyl-9H-purin-2-yl)pyridin-2-yl)amino)ethan-1-ol], the results for the GI50 with HCC1954 cells (setting [3]) and with SK-Br3 cells (setting [4]) were 0.173 µM and 0.261 µM, respectively. The same molecule came in with an IC50 against CDK12/CyclinK of 0.053 µM.

Turning to `CC(C)n1cnc2c(NCc3ccc(-c4cccnc4)nc3)nc(-c3ccc(NCCCO)cc3)nc21` [Example 34, 3-((4-(6-(([2,3′-bipyridin]-5-ylmethyl)amino)-9-isopropyl-9H-purin-2-yl)phenyl)amino)propan-1-ol], the GI50 in the series with HCC1954 cells (setting [3]) was 0.906 µM; in the series on SK-Br3 cells (setting [4]) it was 1.09 µM. This molecule showed a half-inhibitory concentration (IC50) against CDK12/CyclinK of 0.499 µM.

Consider `CC(C)n1cnc2c(NCc3ccc(-c4cccnc4)nc3)nc(-c3ccc4cn[nH]c4c3)nc21` [Example 13, N-([2,3′-bipyridin]-5-ylmethyl)-2-(1H-indazol-6-yl)-9-isopropyl-9H-purin-6-amine], for which the values for the GI50 with HCC1954 cells (setting [3]) and in the series on SK-Br3 cells (setting [4]) were 0.4 µM and 0.597 µM, respectively. At CDK12/CyclinK, this molecule returned an IC50 of 0.179 µM.

For `CC(C)n1cnc2c(NCc3ccc(-c4cccnc4)nc3)nc(-n3cc(CCO)nn3)nc21` [Example 42, 2-(1-(6-(([2,3′-bipyridin]-5-ylmethyl)amino)-9-isopropyl-9H-purin-2-yl)-1H-1,2,3-triazol-4-yl)ethan-1-ol], the figures for the GI50 with HCC1954 cells (setting [3]) and with SK-Br3 cells (setting [4]) were 6.5 µM and 8.29 µM, respectively. In addition, the IC50 on CDK12/CyclinK was 0.539 µM.

`CC(C)n1cnc2c(NCc3ccc(-c4cccnc4)nc3)nc(-c3ccccc3)nc21` [Example 8, N-([2,3′-bipyridin]-5-ylmethyl)-9-isopropyl-2-phenyl-9H-purin-6-amine]: the GI50 with HCC1954 cells (setting [3]) came to 1.12 µM; in the series on SK-Br3 cells (setting [4]), 1.68 µM. Besides, half-maximal inhibition at CDK12/CyclinK (IC50) required 0.623 µM.

Take `Cc1ccc(-c2ccc(CNc3nc(-c4cccnc4)nc4c3ncn4C(C)C)nc2)cn1` [Example 3, 9-isopropyl-N-((6′-methyl-[3,3′-bipyridin]-6-yl)methyl)-2-(pyridin-3-yl)-9H-purin-6-amine]: the GI50 with HCC1954 cells (setting [3]) came out at 13.6 µM; with SK-Br3 cells (setting [4]), 23.1 µM. For the same molecule, 1.11 µM corresponded to half-maximal inhibition at CDK12/CyclinK (IC50).

As to `CC(C)n1cnc2c(NCc3ccc(-c4cccnc4)nc3)nc(-c3ccc4[nH]ncc4c3)nc21` [Example 14, N-([2,3′-bipyridin]-5-ylmethyl)-2-(1H-indazol-5-yl)-9-isopropyl-9H-purin-6-amine], the GI50 was 1.88 µM in the series with HCC1954 cells (setting [3]) and 2.6 µM in the series with SK-Br3 cells (setting [4]). Besides, the IC50 on CDK12/CyclinK worked out at 0.104 µM.

The values above are taken from US20250101023A1, “HETEROARYL DERIVATIVE AND USES THEREOF” (IUCF-HYU (INDUSTRY-UNIVERSITY COOPERATION FOUNDATION …, priority 2022, published 2025).
